What follows are molecules tested on HT-29 (assay: Anticancer activity aganist human HT-29 cells). Conditions: read-out: ED50 (the source's name).
Format: functional
For CC(C)=CCc1c2c(c(O)c3c1O[C@]14C(=C[C@@H]5C[C@H]1C(C)(C)O[C@@]4(C/C=C(/C)C(=O)O)C5=O)C3=O)C=CC(C)(C)O2, the EC50 was 360 nM. For CC(C)=CCC[C@]1(C)C=Cc2c(O)c3c(c(CC=C(C)C)c2O1)O[C@]12C(=C[C@@H]4C[C@H]1C(C)(C)O[C@@]2(C/C=C(/C)C(=O)O)C4=O)C3=O [GAMBOGIC ACID], the EC50 was 480 nM. With CC(=O)O[C@H]1C(=O)[C@@]2(C)[C@H]([C@H](OC(=O)c3ccccc3)[C@]3(O)C[C@H](OC(=O)[C@H](O)[C@@H](NC(=O)c4ccccc4)c4ccccc4)C(C)=C1C3(C)C)[C@]1(OC(C)=O)CO[C@@H]1C[C@@H]2O [PACLITAXEL] the EC50 was 0.1 nM.

Reference: ChEMBL document CHEMBL1765067, “Absolute configuration of (-)-gambogic acid, an antitumor agent” (2011)
